Like-named read-outs stand apart in the source and are kept apart here. Blank lines part the entries; values can stand above or below the molecule they belong to.
Tests used:
Experiment in all cases: Ambit kinase profiling, competition binding
[1] = target: T1, DAPK1 (Homo sapiens, UniProt P53355)
T1 construct: purchased Ambit Biosciences (KINOMEscan)
Experimental: (§1) Also included in the kinase profile are four isoforms of PKC (δ, ε, η, θ) and eight isoforms of CAMKs (CAMKIα, δ, γ; CAMKIIα, β, δ, γ; CAMK4).
(§2) The global kinase profiling experiment was performed by Ambit Biosciences.

[2] = target: T2, PCTK1 (Homo sapiens, UniProt Q00536)
T2 construct: purchased Ambit Biosciences (KINOMEscan)
Experimental: as §1, §2

[3] = target: T3, EPHB4 (Homo sapiens, UniProt P54760)
T3 construct: purchased Ambit Biosciences (KINOMEscan)
T3 sequence (P54760 16-987): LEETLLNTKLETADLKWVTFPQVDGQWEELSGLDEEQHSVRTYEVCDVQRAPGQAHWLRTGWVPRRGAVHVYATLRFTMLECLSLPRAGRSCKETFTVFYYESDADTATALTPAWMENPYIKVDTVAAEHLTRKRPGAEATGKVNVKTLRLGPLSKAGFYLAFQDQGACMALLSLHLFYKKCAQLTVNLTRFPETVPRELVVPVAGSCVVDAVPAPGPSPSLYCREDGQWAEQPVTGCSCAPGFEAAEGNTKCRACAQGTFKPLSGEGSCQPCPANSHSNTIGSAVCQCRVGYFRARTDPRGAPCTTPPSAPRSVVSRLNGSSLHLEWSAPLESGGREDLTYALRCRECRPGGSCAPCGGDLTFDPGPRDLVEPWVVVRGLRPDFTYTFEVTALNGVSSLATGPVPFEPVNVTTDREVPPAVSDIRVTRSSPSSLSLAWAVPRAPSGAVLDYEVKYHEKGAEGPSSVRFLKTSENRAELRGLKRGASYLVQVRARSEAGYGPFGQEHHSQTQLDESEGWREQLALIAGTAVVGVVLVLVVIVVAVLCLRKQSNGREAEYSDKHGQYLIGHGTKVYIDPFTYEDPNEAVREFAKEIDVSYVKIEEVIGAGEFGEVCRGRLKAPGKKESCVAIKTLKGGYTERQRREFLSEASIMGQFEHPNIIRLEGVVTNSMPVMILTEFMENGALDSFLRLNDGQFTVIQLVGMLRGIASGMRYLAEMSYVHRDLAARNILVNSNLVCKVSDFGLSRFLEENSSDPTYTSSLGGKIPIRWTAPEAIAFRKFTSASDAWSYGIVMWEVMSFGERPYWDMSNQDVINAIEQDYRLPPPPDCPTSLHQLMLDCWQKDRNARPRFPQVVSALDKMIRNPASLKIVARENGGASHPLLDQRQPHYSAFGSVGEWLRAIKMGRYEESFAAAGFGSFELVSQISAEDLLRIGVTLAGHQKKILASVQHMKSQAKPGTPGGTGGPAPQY
Experimental: as §1, §2

[4] = target: T4, RIPK2 (Homo sapiens, UniProt O43353)
T4 construct: purchased Ambit Biosciences (KINOMEscan)
Experimental: as §1, §2

[5] = target: T5, ROS1 (Homo sapiens, UniProt P08922)
T5 construct: purchased Ambit Biosciences (KINOMEscan)
Experimental: as §1, §2

[6] = target: T6, CDC2L2 (Homo sapiens, UniProt Q9UQ88)
T6 construct: purchased Ambit Biosciences (KINOMEscan)
T6 sequence (Q9UQ88 1-783): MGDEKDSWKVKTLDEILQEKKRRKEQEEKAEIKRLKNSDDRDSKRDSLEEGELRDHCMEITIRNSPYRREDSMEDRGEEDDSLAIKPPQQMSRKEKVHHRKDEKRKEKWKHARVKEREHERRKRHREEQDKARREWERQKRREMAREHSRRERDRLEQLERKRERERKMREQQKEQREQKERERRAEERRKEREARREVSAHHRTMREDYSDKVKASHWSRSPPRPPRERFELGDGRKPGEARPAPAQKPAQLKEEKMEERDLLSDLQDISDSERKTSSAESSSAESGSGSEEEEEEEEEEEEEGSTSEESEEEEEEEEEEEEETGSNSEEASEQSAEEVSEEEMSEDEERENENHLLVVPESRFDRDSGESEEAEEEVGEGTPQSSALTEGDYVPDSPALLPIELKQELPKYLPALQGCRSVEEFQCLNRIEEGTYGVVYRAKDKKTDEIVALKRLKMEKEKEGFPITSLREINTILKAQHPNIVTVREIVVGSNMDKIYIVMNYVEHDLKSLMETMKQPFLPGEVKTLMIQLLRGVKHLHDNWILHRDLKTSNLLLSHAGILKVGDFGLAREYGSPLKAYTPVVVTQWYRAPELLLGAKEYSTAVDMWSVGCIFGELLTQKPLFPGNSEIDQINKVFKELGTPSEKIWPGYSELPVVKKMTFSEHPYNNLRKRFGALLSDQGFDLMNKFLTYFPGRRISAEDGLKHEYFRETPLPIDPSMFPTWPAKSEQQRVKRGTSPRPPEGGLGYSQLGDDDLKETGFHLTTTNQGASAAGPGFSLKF
Experimental: as §1, §2

[7] = target: T7, CAMKIIα (Homo sapiens, UniProt Q9UQM7); details: for competition: CAMKIIα, 10 µM
T7 construct: purchased Ambit Biosciences (KINOMEscan)
Experimental: as §1, §2

[8] = target: T8, MRCKA (Homo sapiens, UniProt Q5VT25)
T8 construct: purchased Ambit Biosciences (KINOMEscan)
Experimental: as §1, §2

[9] = target: T9, CAMKIIβ (Homo sapiens, UniProt Q13554); details: for competition: CAMKIIβ, 10 µM
T9 construct: purchased Ambit Biosciences (KINOMEscan)
Experimental: as §1, §2

T4 sequence (O43353 whole entry): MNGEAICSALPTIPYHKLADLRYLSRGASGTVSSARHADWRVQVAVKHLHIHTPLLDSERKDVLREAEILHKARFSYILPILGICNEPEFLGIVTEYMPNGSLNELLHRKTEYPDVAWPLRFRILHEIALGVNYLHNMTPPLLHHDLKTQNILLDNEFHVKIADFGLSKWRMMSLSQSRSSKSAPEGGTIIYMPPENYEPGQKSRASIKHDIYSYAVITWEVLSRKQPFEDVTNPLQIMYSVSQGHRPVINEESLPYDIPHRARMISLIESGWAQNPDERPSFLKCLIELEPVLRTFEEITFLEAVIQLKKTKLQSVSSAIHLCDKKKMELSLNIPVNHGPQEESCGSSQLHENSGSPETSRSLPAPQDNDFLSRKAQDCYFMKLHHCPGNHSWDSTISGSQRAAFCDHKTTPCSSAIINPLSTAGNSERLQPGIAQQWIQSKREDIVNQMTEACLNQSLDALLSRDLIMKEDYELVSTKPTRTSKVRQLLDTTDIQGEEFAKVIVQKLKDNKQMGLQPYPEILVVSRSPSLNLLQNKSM
T7 sequence (Q9UQM7 whole entry): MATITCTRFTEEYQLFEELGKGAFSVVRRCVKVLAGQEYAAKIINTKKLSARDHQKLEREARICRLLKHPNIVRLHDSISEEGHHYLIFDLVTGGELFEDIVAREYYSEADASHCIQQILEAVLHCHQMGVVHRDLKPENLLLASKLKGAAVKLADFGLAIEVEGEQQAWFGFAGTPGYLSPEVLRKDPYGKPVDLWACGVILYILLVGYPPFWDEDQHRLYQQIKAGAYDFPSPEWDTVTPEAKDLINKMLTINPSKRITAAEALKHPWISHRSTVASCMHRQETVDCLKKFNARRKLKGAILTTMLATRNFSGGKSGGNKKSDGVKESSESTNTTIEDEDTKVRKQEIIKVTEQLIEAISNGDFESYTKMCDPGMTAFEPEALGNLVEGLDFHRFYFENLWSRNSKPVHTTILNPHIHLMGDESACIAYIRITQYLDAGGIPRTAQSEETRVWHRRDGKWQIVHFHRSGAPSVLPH
T1 sequence (P53355 whole entry): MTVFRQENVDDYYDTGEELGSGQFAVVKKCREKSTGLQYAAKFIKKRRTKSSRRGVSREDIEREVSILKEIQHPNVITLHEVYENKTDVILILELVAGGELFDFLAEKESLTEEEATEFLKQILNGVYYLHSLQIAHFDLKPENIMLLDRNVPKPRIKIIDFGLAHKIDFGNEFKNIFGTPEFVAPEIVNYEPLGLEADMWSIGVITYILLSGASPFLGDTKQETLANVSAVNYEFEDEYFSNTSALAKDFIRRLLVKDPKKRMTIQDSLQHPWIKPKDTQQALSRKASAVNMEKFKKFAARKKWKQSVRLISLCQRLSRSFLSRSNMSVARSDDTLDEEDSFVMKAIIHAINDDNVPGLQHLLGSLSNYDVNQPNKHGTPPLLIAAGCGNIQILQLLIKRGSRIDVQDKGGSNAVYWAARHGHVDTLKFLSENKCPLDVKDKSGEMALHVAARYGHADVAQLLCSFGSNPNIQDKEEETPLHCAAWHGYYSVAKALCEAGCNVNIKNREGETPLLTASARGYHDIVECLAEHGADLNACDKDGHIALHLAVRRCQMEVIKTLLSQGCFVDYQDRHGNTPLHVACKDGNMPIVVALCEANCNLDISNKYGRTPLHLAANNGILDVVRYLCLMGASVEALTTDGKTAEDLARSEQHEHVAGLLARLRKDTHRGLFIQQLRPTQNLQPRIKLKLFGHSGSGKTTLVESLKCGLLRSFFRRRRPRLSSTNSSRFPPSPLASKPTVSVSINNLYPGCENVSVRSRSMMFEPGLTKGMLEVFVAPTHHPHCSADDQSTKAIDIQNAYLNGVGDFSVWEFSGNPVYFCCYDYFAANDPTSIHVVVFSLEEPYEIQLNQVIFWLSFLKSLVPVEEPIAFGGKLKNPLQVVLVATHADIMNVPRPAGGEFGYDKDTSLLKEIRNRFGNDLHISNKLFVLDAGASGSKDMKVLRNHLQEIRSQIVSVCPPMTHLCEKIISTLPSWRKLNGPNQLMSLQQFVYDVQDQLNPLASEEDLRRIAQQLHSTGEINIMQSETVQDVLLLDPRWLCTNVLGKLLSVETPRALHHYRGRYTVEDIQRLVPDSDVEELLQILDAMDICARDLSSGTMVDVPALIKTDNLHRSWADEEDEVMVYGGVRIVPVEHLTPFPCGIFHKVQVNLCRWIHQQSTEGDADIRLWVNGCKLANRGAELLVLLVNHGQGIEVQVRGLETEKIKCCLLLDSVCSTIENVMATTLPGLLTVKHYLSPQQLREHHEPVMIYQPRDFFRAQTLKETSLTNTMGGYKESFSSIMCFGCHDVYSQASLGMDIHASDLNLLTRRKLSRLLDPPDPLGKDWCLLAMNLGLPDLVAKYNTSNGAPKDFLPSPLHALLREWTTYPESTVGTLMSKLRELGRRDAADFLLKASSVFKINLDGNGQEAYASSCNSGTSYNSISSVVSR
T9 sequence (Q13554 whole entry): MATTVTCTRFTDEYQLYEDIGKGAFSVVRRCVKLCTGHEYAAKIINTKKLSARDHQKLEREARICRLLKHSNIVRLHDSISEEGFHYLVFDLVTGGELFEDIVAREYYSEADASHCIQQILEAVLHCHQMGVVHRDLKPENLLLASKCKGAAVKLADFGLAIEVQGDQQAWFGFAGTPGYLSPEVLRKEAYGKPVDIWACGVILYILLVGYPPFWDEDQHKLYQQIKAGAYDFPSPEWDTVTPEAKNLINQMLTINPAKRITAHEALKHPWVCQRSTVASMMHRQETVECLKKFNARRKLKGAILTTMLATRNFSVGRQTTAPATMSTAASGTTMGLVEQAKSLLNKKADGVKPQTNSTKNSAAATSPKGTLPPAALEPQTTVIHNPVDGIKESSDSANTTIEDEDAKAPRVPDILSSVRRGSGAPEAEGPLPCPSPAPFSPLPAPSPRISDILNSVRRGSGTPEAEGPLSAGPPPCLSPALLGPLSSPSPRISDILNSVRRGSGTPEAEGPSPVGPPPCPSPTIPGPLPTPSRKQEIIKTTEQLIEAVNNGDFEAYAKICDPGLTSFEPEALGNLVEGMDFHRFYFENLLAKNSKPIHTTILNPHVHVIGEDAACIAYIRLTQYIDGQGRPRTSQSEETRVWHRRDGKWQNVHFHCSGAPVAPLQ
T8 sequence (Q5VT25 whole entry): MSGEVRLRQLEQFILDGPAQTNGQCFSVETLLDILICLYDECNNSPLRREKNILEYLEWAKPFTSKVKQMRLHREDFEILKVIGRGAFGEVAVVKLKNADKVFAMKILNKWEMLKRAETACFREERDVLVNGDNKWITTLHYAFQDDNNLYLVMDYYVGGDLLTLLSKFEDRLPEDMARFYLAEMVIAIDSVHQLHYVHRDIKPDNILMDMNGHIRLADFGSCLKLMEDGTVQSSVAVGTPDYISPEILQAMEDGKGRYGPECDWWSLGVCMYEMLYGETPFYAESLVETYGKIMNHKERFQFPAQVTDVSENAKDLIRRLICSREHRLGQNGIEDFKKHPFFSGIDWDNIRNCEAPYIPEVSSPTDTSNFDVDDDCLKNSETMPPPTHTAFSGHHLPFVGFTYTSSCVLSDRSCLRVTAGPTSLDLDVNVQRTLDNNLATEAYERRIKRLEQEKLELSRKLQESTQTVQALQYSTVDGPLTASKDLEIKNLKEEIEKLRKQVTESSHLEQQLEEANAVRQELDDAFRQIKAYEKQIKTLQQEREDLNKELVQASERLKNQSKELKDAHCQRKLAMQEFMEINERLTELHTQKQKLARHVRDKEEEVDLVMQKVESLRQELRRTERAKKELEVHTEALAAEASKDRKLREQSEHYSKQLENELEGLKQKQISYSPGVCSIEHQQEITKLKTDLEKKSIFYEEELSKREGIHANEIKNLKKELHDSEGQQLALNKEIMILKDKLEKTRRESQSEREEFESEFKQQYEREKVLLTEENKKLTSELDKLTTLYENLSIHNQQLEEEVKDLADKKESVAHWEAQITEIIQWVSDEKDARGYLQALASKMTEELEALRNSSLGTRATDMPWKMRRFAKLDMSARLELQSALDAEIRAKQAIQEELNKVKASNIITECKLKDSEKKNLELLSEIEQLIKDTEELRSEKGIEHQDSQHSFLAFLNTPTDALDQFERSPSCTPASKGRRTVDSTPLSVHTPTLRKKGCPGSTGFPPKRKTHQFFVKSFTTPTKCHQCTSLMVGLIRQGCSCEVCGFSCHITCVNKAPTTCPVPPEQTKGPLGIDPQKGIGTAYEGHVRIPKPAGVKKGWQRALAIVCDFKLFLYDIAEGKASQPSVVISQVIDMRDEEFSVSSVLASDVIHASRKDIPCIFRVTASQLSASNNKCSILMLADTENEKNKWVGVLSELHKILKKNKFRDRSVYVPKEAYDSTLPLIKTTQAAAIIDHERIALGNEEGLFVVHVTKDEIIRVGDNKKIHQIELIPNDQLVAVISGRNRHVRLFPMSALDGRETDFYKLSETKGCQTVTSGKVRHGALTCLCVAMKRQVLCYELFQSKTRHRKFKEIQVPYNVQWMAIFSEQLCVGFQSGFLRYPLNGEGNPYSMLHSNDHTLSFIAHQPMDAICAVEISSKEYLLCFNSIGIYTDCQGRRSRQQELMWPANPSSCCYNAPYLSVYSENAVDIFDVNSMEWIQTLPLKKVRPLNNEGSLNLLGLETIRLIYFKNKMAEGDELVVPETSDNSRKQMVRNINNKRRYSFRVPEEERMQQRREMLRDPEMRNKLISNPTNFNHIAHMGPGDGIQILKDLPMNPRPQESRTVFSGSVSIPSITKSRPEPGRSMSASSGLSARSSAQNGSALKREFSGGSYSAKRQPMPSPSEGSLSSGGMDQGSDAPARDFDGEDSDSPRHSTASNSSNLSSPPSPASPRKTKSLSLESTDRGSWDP

inhibition at 10 µM ([1]; DAPK1, 10 µM, read-out: % Competition): < 50%
inhibition at 10 µM ([2]; PCTK1, 10 µM, read-out: % Competition): 100%
inhibition at 10 µM ([3]; EPHB4, 10 µM, read-out: % Competition): 72%
inhibition at 10 µM ([4]; RIPK2, 10 µM, read-out: % Competition): 97%
inhibition at 10 µM ([5]; ROS1, 10 µM, read-out: % Competition): 80%
inhibition at 10 µM ([6]; CDC2L2, 10 µM, read-out: % Competition): 92%
competition [7]: < 50%
inhibition at 10 µM ([8]; MRCKA, 10 µM, read-out: % Competition): 99%
competition [9]: < 50%
SMILES: Fc1ccc(-c2c(-c3ccncc3)[nH]c3nccnc23)cc1 [Compound 122]

SMILES: CC(O)CNc1cc(-c2[nH]c3cccnc3c2-c2ccc(F)cc2)ccn1 (stereo not drawn) [Compound 140]
inhibition at 10 µM ([1]; read-out: % Competition): 73%
inhibition at 10 µM ([2]; read-out: % Competition): < 50%
inhibition at 10 µM ([3]; read-out: % Competition): < 50%
inhibition at 10 µM ([4]; read-out: % Competition): 94%
inhibition at 10 µM ([5]; read-out: % Competition): < 50%
inhibition at 10 µM ([6]; read-out: % Competition): < 50%
competition [7]: < 50%
inhibition at 10 µM ([8]; read-out: % Competition): < 50%
competition [9]: < 50%

inhibition at 10 µM ([1]; DAPK1, compound concentration 10 uM, read-out: Percent Competition): < 50%
inhibition at 10 µM ([2]; PCTK1, compound concentration 10 uM, read-out: Percent Competition): 100%
inhibition at 10 µM ([3]; EPHB4, compound concentration 10 uM, read-out: Percent Competition): 72%
inhibition at 10 µM ([4]; RIPK2, compound concentration 10 uM, read-out: Percent Competition): 97%
inhibition at 10 µM ([5]; ROS1, compound concentration 10 uM, read-out: Percent Competition): 80%
inhibition at 10 µM ([6]; CDC2L2, compound concentration 10 uM, read-out: Percent Competition): 92%
inhibition at 10 µM ([7]; CAMK2A, compound concentration 10 uM, read-out: Percent Competition): < 50%
inhibition at 10 µM ([8]; MRCKA, compound concentration 10 uM, read-out: Percent Competition): 99%
inhibition at 10 µM ([9]; CAMK2B, compound concentration 10 uM, read-out: Percent Competition): < 50%
SMILES: Fc1ccc(-c2c(-c3ccncc3)[nH]c3nccnc23)cc1 [RO1155697-000-005]

Source: PMC3445516 (PLoS ONE, 2012)
